Source: publication PMC7402526, “An in vitro quantitative systems pharmacology approach for deconvolving mechanisms of drug-induced, multilineage cytopenias” (PLoS Computational Biology, 2020)
Read-outs that look alike come from different tables or passages of the source. One block for each molecule: values may come before it.

Columns and labels:
Assay type in all cases: cell-based, human
[1] = test system: hematopoietic stem cells (HSCs); assay: Multi-lineage toxicity assay (MLTA), HSCs: concentration-response and QSP model fit; design: EmaxAP,HSC / EmaxT,HSC / Emax_drug_HSC: unitless, 0–2; ≤1 anti-proliferative, >1 adds cell killing; conditions: for EC50 / EmaxT,HSC: QSP model parameter, sheet EC50_parameters, HSCs
Protocol: (§1) A custom optimized cytokine cocktail was developed using commercially available cytokines (Peprotech, New Jersey) to facilitate simultaneous multi-lineage differentiation and self-renewal of freeze-thawed primary human bone marrow-derived CD34+ cells in SFEM II media (cells and media from StemCell Technologies, Vancouver). Cultures were carried out in ultra-low attachment 96-well plates (Corning, New York) with test article added on day 0 and cultured at 37°C, 85% relative humidity, and 5% CO2 for six days before interrogating drug impact via 17-parameter flow cytometry.
(§2) The flow cytometry panel used to define hematopoietic subsets was composed of CD34-PECy7, CD90-PECY5, CD38-AF488, CD371-PE, CD45Ra-BV421, CD14-BV605, CD42b-AF647, CD10-PEDazzle594, CD235a-PerCPCy5.5 (BioLegend, California), CD15-BUV395, CD41a-APCH7, CD71-BV786 (BD Biosciences, California), and DAPI for dead cell exclusion (ThermoFisher, California). In short, Day 6 cells were harvested, FcR-blocked (FcR binding inhibitor, ThermoFisher), surface-stained, then analyzed in a buffer containing TruCount Control Beads using a BD LSR Fortessa SORP fitted with a high-throughput sampler (BD Biosciences, California). Data was analyzed in Diva 6.0.2 and exported to CSV where after all cell data was transformed to cell per mL then normalized on a per-donor basis to untreated control wells to determine drug impact.
(§3) Donor material was collected and cultured as described above. The number of replicate donor samples per drug ranged from 2–7 and varied per drug (S1 Table). Drug treatment was added at time 0 and cells were maintained in culture for 6 days. Concentrations tested for each drug compound are contained in S1 Table. Concentrations were selected to span a range that is clinically useful. Following treatment, cell populations were measured using flow cytometry. We extracted cell counts from flow cytometry data, normalized to bead counts, and corrected for well volume.
(§4) Each well was normalized to the average of six vehicle control wells. For drugs that were tested across multiple runs of the assay, vehicle-normalized donor data were pooled, and we used the average of these pooled data for further modeling. Normalized data used as model inputs are included in S1 Table.
(§5) We implemented drug effects using an Emax model for the drug’s effect on each cell type. The 13 maximum effect parameters (EmaxT,C) are unitless and can vary between 0 and 2 and where a subscript, C, represents one of the previously described 13 cell types. We adapted a traditional Emax model using the equations below. We interpreted EmaxT values less than or equal to one as anti-proliferative, and EmaxT values greater than one as indicating a cell-killing mechanism in addition to anti-proliferation. The relationships for these effects are included in the model using the following equations. Eq 2 describes the drug anti-proliferative effect in the net proliferation rate for a given cell type. Eq 3 describes the cell-killing EmaxCK effect.
(§6) Towards the estimation of mechanistic parameters, we considered different formulations: (a) weighting the objective value to prioritize fitting dead cells and (b) using regularization methodology to encourage a parsimonious solution. We assessed the contributions of these formulations using mean-squared error and goodness of fit plots for drugs with known mechanisms. […] Further, we used L1 regularization to penalize parameters […] to help identify a parsimonious set of parameters to explain drug effects.

[2] = test system: multi-potent progenitors (MPPs); assay: MLTA, MPPs: concentration-response and QSP model fit; conditions: for EC50 / EmaxT,MPP: QSP model parameter, sheet EC50_parameters, MPPs
Protocol: as §1, §2, §3, §4, §5, §6

[3] = test system: granulocyte-macrophage progenitor (GMPs); assay: MLTA, GMPs: concentration-response and QSP model fit; conditions: for EC50 / EmaxT,GMP: QSP model parameter, sheet EC50_parameters, GMPs; for Emax_drug_GMP: parameter from QSP model fitting
Protocol: as §1, §2, §3, §4, §5, §6

[4] = test system: granulocyte progenitor (Gran-lin prog); assay: MLTA, GranP: concentration-response and QSP model fit; conditions: for EC50 / EmaxT,GranP: QSP model parameter, sheet EC50_parameters, GranP; for EC50: read-out: EC50GranP
Protocol: as §1, §2, §3, §4, §5, §6

[5] = test system: granulocytes (Gran-lin); assay: MLTA, Gran: concentration-response and QSP model fit; conditions: for EC50 / EmaxT,Gran: QSP model parameter, sheet EC50_parameters, Gran
Protocol: as §1, §2, §3, §4, §5, §6

[6] = test system: monocyte progenitors (monocyte prog); assay: MLTA, MonoP: concentration-response and QSP model fit; conditions: for EC50 / EmaxT,MonoP: QSP model parameter, sheet EC50_parameters, MonoP; for EC50: read-out: EC50MonoP
Protocol: as §1, §2, §3, §4, §5, §6

[7] = test system: monocytes (monocyte-lin); assay: MLTA, Mono: concentration-response and QSP model fit; conditions: for EC50 / EmaxT,Mono: QSP model parameter, sheet EC50_parameters, Mono
Protocol: as §1, §2, §3, §4, §5, §6

[8] = test system: neutrophils (neutrophil-lin); assay: MLTA, Neut: concentration-response and QSP model fit; conditions: for EC50 / EmaxT,Neut: QSP model parameter, sheet EC50_parameters, Neut
Protocol: as §1, §2, §3, §4, §5, §6

[9] = test system: early erythroid cells (Eryth I); assay: MLTA, ErythI: concentration-response and QSP model fit; conditions: for EC50 / EmaxT,ErythroidI: QSP model parameter, sheet EC50_parameters, Erythroid I; for EC50: read-out: EC50ErythroidI
Protocol: as §1, §2, §3, §4, §5, §6

[10] = test system: late erythroid cells (Eryth II); assay: MLTA, ErythII: concentration-response and QSP model fit; conditions: for EC50 / EmaxT,ErythroidII: QSP model parameter, sheet EC50_parameters, Erythroid II; for EC50: read-out: EC50ErythroidII
Protocol: as §1, §2, §3, §4, §5, §6

[11] = test system: MK cells (MK-lin); assay: MLTA, MK: concentration-response and QSP model fit; conditions: for EC50 / EmaxT,MK: QSP model parameter, sheet EC50_parameters, MK
Protocol: as §1, §2, §3, §4, §5, §6

[12] = test system: lymphocyte progenitors (LymP); assay: MLTA, LymP: concentration-response and QSP model fit; conditions: for EC50 / EmaxT,LymP: QSP model parameter, sheet EC50_parameters, LymP
Protocol: as §1, §2, §3, §4, §5, §6

[13] = test system: B cells (B-lin); assay: MLTA, B-lin: concentration-response and QSP model fit; conditions: for EC50 / EmaxT,B: QSP model parameter, sheet EC50_parameters, B
Protocol: as §1, §2, §3, §4, §5, §6

[14] = parameter from QSP model fitting

EC50 ([2]; Homo sapiens): 427 nM
EC50 ([3]; Homo sapiens): 851 nM
EC50 ([4]; Homo sapiens): 176 nM
EC50 ([5]; Homo sapiens): 364 nM
EC50 ([6]; Homo sapiens, Monocyte): 114 nM
EC50 ([7]; Homo sapiens, Monocyte): 264 nM
EC50 ([8]; Homo sapiens, Neutrophil): 88.3 nM
EC50 ([9]; Homo sapiens): 1180 nM
EC50 ([10]; Homo sapiens): 173 nM
EC50 ([11]; Homo sapiens): 4130 nM
EC50 ([12]; Homo sapiens, Lymphocyte): 241 nM
EC50 ([13]; Homo sapiens, B-cell): 425 nM
Compound: Cc1sc2c(c1C)C(c1ccc(Cl)cc1)=N[C@@H](CC(=O)Nc1ccc(O)cc1)c1nnc(C)n1-2 [OTX015]
Emax ([1]; Homo sapiens, Hematopoietic stem cell, 144 h, parameter from QSP model fitting, read-out: Emax_drug_HSC): 40.1%
EC50 ([1]; Homo sapiens, Hematopoietic stem cell): 241 nM
Emax ([2]; Homo sapiens, 144 h, parameter from QSP model fitting, read-out: Emax_drug_MPP): 0.05%
Emax ([4]; Homo sapiens, 144 h, parameter from QSP model fitting, read-out: Emax_drug_GranP): 0.16%
Emax ([5]; Homo sapiens, 144 h, parameter from QSP model fitting, read-out: Emax_drug_Gran): 126%
Emax ([6]; Homo sapiens, Monocyte, 144 h, parameter from QSP model fitting, read-out: Emax_drug_MonoP): 0.18%
Emax ([7]; Homo sapiens, Monocyte, 144 h, parameter from QSP model fitting, read-out: Emax_drug_Mono): 37.5%
Emax ([8]; Homo sapiens, Neutrophil, 144 h, parameter from QSP model fitting, read-out: Emax_drug_Neut): 16.7%
Emax ([9]; Homo sapiens, 144 h, parameter from QSP model fitting, read-out: Emax_drug_ErythroidI): 195%
Emax ([10]; Homo sapiens, 144 h, parameter from QSP model fitting, read-out: Emax_drug_ErythroidII): 12%
Emax ([11]; Homo sapiens, 144 h, parameter from QSP model fitting, read-out: Emax_drug_MK): 26.9%
Emax ([12]; Homo sapiens, Lymphocyte, 144 h, parameter from QSP model fitting, read-out: Emax_drug_LymP): 115%
Emax ([13]; Homo sapiens, B-cell, 144 h, parameter from QSP model fitting, read-out: Emax_drug_B): 76.8%

EC50 [2]: 939 nM
EC50 [3]: 753 nM
EC50 [4]: 302 nM
EC50 [5]: 0.117 nM
EC50 [6]: 178 nM
EC50 [7]: 299 nM
EC50 [8]: 1030 nM
EC50 [9]: 921 nM
EC50 [10]: 1780 nM
EC50 [11]: 1110 nM
EC50 [12]: 37 nM
EC50 [13]: 1090 nM
Compound: O=c1[nH]cc(F)c(=O)[nH]1 [5-FU]
EC50 [1]: 1910 nM
EmaxT,HSC [1]: 0.7982
Emax_drug_HSC [1, 14]: 0.7982
EmaxT,MPP [2]: 0.000528
Emax_drug_MPP [2, 14]: 0.000528
EmaxT,GMP [3]: 1.5687
Emax_drug_GMP [3]: 1.5687
EmaxT,GranP [4]: 0.0162
Emax_drug_GranP [4, 14]: 0.0162
EmaxT,Gran [5]: 0.1807
Emax_drug_Gran [5, 14]: 0.1807
EmaxT,MonoP [6]: 0.0016
Emax_drug_MonoP [6, 14]: 0.0016
EmaxT,Mono [7]: 0.3048
Emax_drug_Mono [7, 14]: 0.3048
EmaxT,Neut [8]: 0.2668
Emax_drug_Neut [8, 14]: 0.2668
EmaxT,ErythroidI [9]: 2.3324
Emax_drug_ErythroidI [9, 14]: 2.3324
EmaxT,ErythroidII [10]: 0.0352
Emax_drug_ErythroidII [10, 14]: 0.0352
EmaxT,MK [11]: 0.3220
Emax_drug_MK [11, 14]: 0.3220
EmaxT,LymP [12]: 0.0016
Emax_drug_LymP [12, 14]: 0.0016
EmaxT,B [13]: 0.8249
Emax_drug_B [13, 14]: 0.8249

EC50 [2]: 1000 nM
EC50 [3]: 911 nM
EC50 [4]: 949 nM
EC50 [5]: 0.687 nM
EC50 [6]: 182 nM
EC50 [7]: 15.5 nM
EC50 [8]: 400 nM
EC50 [9]: 32.3 nM
EC50 [10]: 1160 nM
EC50 [11]: 24.1 nM
EC50 [12]: 21.2 nM
EC50 [13]: 13.1 nM
Compound: Cc1c(-c2ccc(N3CCc4cccc(C(=O)Nc5nc6ccccc6s5)c4C3)nc2C(=O)O)cnn1CC12CC3CC(CC(C3)C1)C2 [A_1331852]
EC50 [1]: 1960 nM
EmaxT,HSC [1]: 0.0828
Emax_drug_HSC [1, 14]: 0.0828
EmaxT,MPP [2]: 2.15e-6
Emax_drug_MPP [2, 14]: 2.15e-6
EmaxT,GMP [3]: 1.14e-6
Emax_drug_GMP [3]: 1.14e-6
EmaxT,GranP [4]: 1.71e-6
Emax_drug_GranP [4, 14]: 1.71e-6
EmaxT,Gran [5]: 2.2504
Emax_drug_Gran [5, 14]: 2.2504
EmaxT,MonoP [6]: 1.47e-5
Emax_drug_MonoP [6, 14]: 1.47e-5
EmaxT,Mono [7]: 0.0610
Emax_drug_Mono [7, 14]: 0.0610
EmaxT,Neut [8]: 1.51e-7
Emax_drug_Neut [8, 14]: 1.51e-7
EmaxT,ErythroidI [9]: 2.5750
Emax_drug_ErythroidI [9, 14]: 2.5750
EmaxT,ErythroidII [10]: 1.51e-6
Emax_drug_ErythroidII [10, 14]: 1.51e-6
EmaxT,MK [11]: 0.1880
Emax_drug_MK [11, 14]: 0.1880
EmaxT,LymP [12]: 1.6e-5
Emax_drug_LymP [12, 14]: 1.6e-5
EmaxT,B [13]: 0.1187
Emax_drug_B [13, 14]: 0.1187
